The test relates to BM4-5 FEO replicon (genotype 1b HCV). Put plainly: HCV replicon assay. The settings on record: cells stably expressing BM4-5 FEO replicon, 48 hours incubation.

Method: HCV replicon assays were used to measure compound activity in cells. The impact of compounds on HCV replicon replication was assessed, using a method that was previously described (ref.: Wyles, D. L., Kaihara, K. A., Vaida, F. & Schooley, R. T. Synergy of small molecular inhibitors of hepatitis C virus replication directed at multiple viral targets. J Virol 81, 3005-8 (2007).) in cells stably expressing the BM4-5 FEO replicon in 96-well plates (10,000 cells/well). […] For testing the effect of compounds on the HCV replicon cells were incubated with compound for 48 hours and the results expressed as the mean (±SEM) of the relative light units for each condition. A sigmoidal dose response curve was then fitted to the data using Prism4.0 (GraphPad Software).

`CC(=O)c1ccc(C(=O)N[C@@H](CCCCN)C(=O)N2C[C@H](N)C[C@H](N)C2)cc1` [Formula III]: the “Inhibition of HCV in a subgenomic replicon” value is listed as “inhibition of HCV”.
